Measured values from PubChem BioAssay AID248 (DTP/NCI, 2004).
Several values for one entry are separate records, joined by “and”; a condition that tells them apart may be missing. Identical values can stand only once. Inconclusive results and toxic doses are left out. No stated cut-off is given here; in the data, active means T/C of 150% or more; inactive means T/C below 125%.

Tested on: L1210 leukemia ip in BDF1 mice, survival T/C
Assay: NCI In Vivo Anticancer Drug Screen. Data for tumor model L1210 Leukemia (intraperitoneal) in B6D2F1 (BDF1) mice
Conditions: endpoint: mean survival time, higher = longer survival
Method: The antitumor activity of compounds was measured in mice bearing transplantable tumors. Survival or tumor size were measured and the results are expressed as the measurement made in the treated group (T) divided by the measurement made in the vehicle treated control group (C). The tumor model used in this assay is L1210 Leukemia (intraperitoneal) in B6D2F1 (BDF1) mice

[1] = dose: 100.0 mg/kg/injection, schedule: Q01DX009 (ip), vehicle: saline
[2] = dose: 100.0 mg/kg/injection, schedule: Q01DX001 (ip), vehicle: Klucel (hydroxypropylcellulose) (HPC)
[3] = dose: 200.0 mg/kg/injection, schedule: Q01DX001 (ip), vehicle: Klucel (hydroxypropylcellulose) (HPC)
[4] = dose: 400.0 mg/kg/injection, schedule: Q01DX001 (ip), vehicle: Klucel (hydroxypropylcellulose) (HPC)

Measured: T/C

CC(=O)NCc1cccc([N+](=O)[O-])c1
inactive: dose: 25.0 mg/kg/injection, schedule: Q01DX005 (ip), vehicle: saline 111 % of control | dose: 100.0 mg/kg/injection, schedule: Q01DX005 (ip), vehicle: saline 102 % of control

OCC(c1ccccc1)[P+](c1ccccc1)(c1ccccc1)c1ccccc1 (stereo not given)
inactive: dose: 5.0 mg/kg/injection, schedule: Q01DX001 (ip), vehicle: saline 94 % of control | dose: 10.0 mg/kg/injection, schedule: Q01DX001 (ip), vehicle: saline 97 % of control | dose: 20.0 mg/kg/injection, schedule: Q01DX001 (ip), vehicle: saline 103 % of control | dose: 40.0 mg/kg/injection, schedule: Q01DX001 (ip), vehicle: saline 97 % of control | dose: 80.0 mg/kg/injection, schedule: Q01DX001 (ip), vehicle: saline 97 % of control

CC(C)(C)S(=O)(=O)CCS(=O)(=O)C(C)(C)C
inactive: [1] 100 % of control | dose: 100.0 mg/kg/injection, schedule: Q04DX002 (ip), vehicle: Klucel (hydroxypropylcellulose) (HPC) 104 % of control | dose: 100.0 mg/kg/injection, schedule: Q04DX002 (ip), vehicle: saline with Tween-80 97 % of control | dose: 200.0 mg/kg/injection, schedule: Q01DX009 (ip), vehicle: saline 100 % of control | dose: 200.0 mg/kg/injection, schedule: Q04DX002 (ip), vehicle: Klucel (hydroxypropylcellulose) (HPC) 97 % of control | dose: 200.0 mg/kg/injection, schedule: Q04DX002 (ip), vehicle: saline with Tween-80 94 % of control | dose: 400.0 mg/kg/injection, schedule: Q01DX009 (ip), vehicle: saline 107 % of control | dose: 400.0 mg/kg/injection, schedule: Q04DX002 (ip), vehicle: Klucel (hydroxypropylcellulose) (HPC) 104 % of control | dose: 400.0 mg/kg/injection, schedule: Q04DX002 (ip), vehicle: saline with Tween-80 90 % of control

CC1(c2cccc3ccccc23)OCC2(CCC2)CO1
inactive: [2] 102 % of control | [3] 98 % of control | [4] 100 % of control

O=c1cc(CO)[nH]cc1O
active: dose: 200.0 mg/kg/injection, schedule: Q01DX009 (ip), vehicle: Klucel (hydroxypropylcellulose) (HPC) 151 % of control | dose: 250.0 mg/kg/injection, schedule: Q01DX015 (ip), vehicle: saline 159 % of control | dose: 400.0 mg/kg/injection, schedule: Q01DX009 (ip), vehicle: Klucel (hydroxypropylcellulose) (HPC) 156 % of control | dose: 500.0 mg/kg/injection, schedule: Q01DX015 (ip), vehicle: saline 165 % of control
inactive: dose: 25.0 mg/kg/injection, schedule: Q01DX Z (ip), vehicle: methylcellulose (MC) 102 % of control | dose: 50.0 mg/kg/injection, schedule: Q01DX015 (ip), vehicle: carboxymethylcellulose (CMC) 103 % of control | dose: 50.0 mg/kg/injection, schedule: Q01DX Z (ip), vehicle: methylcellulose (MC) 96 % of control | dose: 62.5 mg/kg/injection, schedule: Q01DX015 (ip), vehicle: saline 115 % of control | dose: 78.0 mg/kg/injection, schedule: Q01DX Z (ip), vehicle: carboxymethylcellulose (CMC) 98 % of control and 112 % of control | dose: 78.0 mg/kg/injection, schedule: Q01DX Z (ip), vehicle: saline 96 % of control and 114 % of control | [2] 106 % of control | dose: 100.0 mg/kg/injection, schedule: Q01DX009 (ip), vehicle: Klucel (hydroxypropylcellulose) (HPC) 110 % of control and 121 % of control | [1] 121 % of control | dose: 100.0 mg/kg/injection, schedule: Q01DX015 (ip), vehicle: carboxymethylcellulose (CMC) 108 % of control | dose: 100.0 mg/kg/injection, schedule: Q01DX Z (ip), vehicle: methylcellulose (MC) 101 % of control | dose: 100.0 mg/kg/injection, schedule: Q04DX003 (ip), vehicle: Klucel (hydroxypropylcellulose) (HPC) 110 % of control | dose: 100.0 mg/kg/injection, schedule: Q04DX003 (ip), vehicle: saline 106 % of control | dose: 117.0 mg/kg/injection, schedule: Q01DX Z (ip), vehicle: carboxymethylcellulose (CMC) 104 % of control and 121 % of control | dose: 117.0 mg/kg/injection, schedule: Q01DX Z (ip), vehicle: methylcellulose (MC) 110 % of control | dose: 117.0 mg/kg/injection, schedule: Q01DX Z (ip), vehicle: saline 110 % of control and 120 % of control | dose: 125.0 mg/kg/injection, schedule: Q01DX001 (ip), vehicle: carboxymethylcellulose (CMC) 104 % of control and 106 % of control | dose: 125.0 mg/kg/injection, schedule: Q01DX015 (ip), vehicle: saline 113 % of control | dose: 125.0 mg/kg/injection, schedule: Q## X001 (ip), vehicle: carboxymethylcellulose (CMC) 100 % of control | dose: 175.0 mg/kg/injection, schedule: Q01DX Z (ip), vehicle: carboxymethylcellulose (CMC) 109 % of control | dose: 175.0 mg/kg/injection, schedule: Q01DX Z (ip), vehicle: methylcellulose (MC) 96 % of control | dose: 175.0 mg/kg/injection, schedule: Q01DX Z (ip), vehicle: saline 113 % of control | dose: 177.0 mg/kg/injection, schedule: Q01DX009 (ip), vehicle: Klucel (hydroxypropylcellulose) (HPC) 121 % of control | [3] 110 % of control | dose: 200.0 mg/kg/injection, schedule: Q04DX003 (ip), vehicle: Klucel (hydroxypropylcellulose) (HPC) 122 % of control | dose: 200.0 mg/kg/injection, schedule: Q04DX003 (ip), vehicle: saline 115 % of control | dose: 250.0 mg/kg/injection, schedule: Q01DX001 (ip), vehicle: carboxymethylcellulose (CMC) 97 % of control and 101 % of control | dose: 250.0 mg/kg/injection, schedule: Q## X001 (ip), vehicle: carboxymethylcellulose (CMC) 106 % of control | dose: 263.0 mg/kg/injection, schedule: Q01DX Z (ip), vehicle: carboxymethylcellulose (CMC) 124 % of control | dose: 263.0 mg/kg/injection, schedule: Q01DX Z (ip), vehicle: methylcellulose (MC) 110 % of control | dose: 264.0 mg/kg/injection, schedule: Q01DX008 (ip), vehicle: saline 106 % of control | dose: 264.0 mg/kg/injection, schedule: Q01DX009 (ip), vehicle: saline 101 % of control | dose: 393.0 mg/kg/injection, schedule: Q01DX Z (ip), vehicle: methylcellulose (MC) 116 % of control | [4] 112 % of control | dose: 400.0 mg/kg/injection, schedule: Q01DX008 (ip), vehicle: saline 116 % of control | dose: 400.0 mg/kg/injection, schedule: Q04DX003 (ip), vehicle: Klucel (hydroxypropylcellulose) (HPC) 122 % of control | dose: 400.0 mg/kg/injection, schedule: Q04DX003 (ip), vehicle: saline 112 % of control | dose: 500.0 mg/kg/injection, schedule: Q01DX001 (ip), vehicle: carboxymethylcellulose (CMC) 95 % of control and 111 % of control | dose: 500.0 mg/kg/injection, schedule: Q01DX Z (ip), vehicle: methylcellulose (MC) 106 % of control | dose: 500.0 mg/kg/injection, schedule: Q## X001 (ip), vehicle: carboxymethylcellulose (CMC) 101 % of control | dose: 590.0 mg/kg/injection, schedule: Q01DX Z (ip), vehicle: carboxymethylcellulose (CMC) 105 % of control | dose: 625.0 mg/kg/injection, schedule: Q01DX Z (ip), vehicle: methylcellulose (MC) 108 % of control | dose: 750.0 mg/kg/injection, schedule: Q01DX Z (ip), vehicle: methylcellulose (MC) 120 % of control | dose: 1000.0 mg/kg/injection, schedule: Q01DX001 (ip), vehicle: carboxymethylcellulose (CMC) 102 % of control and 105 % of control | dose: 1000.0 mg/kg/injection, schedule: Q## X001 (ip), vehicle: carboxymethylcellulose (CMC) 108 % of control

C=CCCCCCCCCC(=O)N/N=C/c1cccc(OC)c1OC
inactive: dose: 100.0 mg/kg/injection, schedule: Q04DX002 (ip), vehicle: saline 95 % of control | dose: 200.0 mg/kg/injection, schedule: Q04DX002 (ip), vehicle: saline 103 % of control | dose: 400.0 mg/kg/injection, schedule: Q04DX002 (ip), vehicle: saline 106 % of control

CC1(C)N=C(N)N=C(N)N1c1cccc(CC(C(=O)Nc2ccc(S(=O)(=O)F)cc2)c2ccccc2)c1 (stereo not given)
inactive: dose: 25.0 mg/kg/injection, schedule: Q01DX001 (ip), vehicle: Klucel (hydroxypropylcellulose) (HPC) 95 % of control | dose: 50.0 mg/kg/injection, schedule: Q01DX001 (ip), vehicle: Klucel (hydroxypropylcellulose) (HPC) 95 % of control | [2] 94 % of control and 95 % of control | [3] 101 % of control
